Four compounds from ChEMBL document CHEMBL3217590, “Discovery of a new class of dithiocarbamates and rhodanine scaffolds as potent antifungal agents: synthesis, biology and molecular docking” (Medchemcomm, 2012) can be followed below.

One series deals with Aspergillus fumigatus. Description: Antifungal activity against Aspergillus fumigatus after 72 to 96 hrs by broth microdilution technique. Format: functional. On the technique in general: Dilution methods test growth across graded concentrations, often in twofold steps.
In the next series the test system is Cryptococcus neoformans. Description: Antifungal activity against Cryptococcus neoformans after 24 to 48 hrs by broth microdilution technique. The format is functional.
Series [1] relates to Sporothrix schenckii. Description: Antifungal activity against Sporothrix schenckii after 72 to 96 hrs by broth microdilution technique. The format is functional.
The test system of series [2] is Candida albicans. As to the kind of experiment: Antifungal activity against Candida albicans after 24 to 48 hrs by broth microdilution technique. Format: functional.
For series [3], the system named is Candida albicans. As to the kind of experiment: Anticandidal activity against Candida albicans MTCC183 after 24 to 48 hrs by broth microdilution technique. Format: functional.
The test system of series [4] is Candida albicans. As to the kind of experiment: Anticandidal activity against Candida albicans ATCC10231 after 24 to 48 hrs by broth microdilution technique. The format is functional.
The next series relates to Candida parapsilosis. Description: Antifungal activity against Candida parapsilosis ATCC22019 after 24 to 48 hrs by broth microdilution technique. Particulars: Lodderomyces parapsilosis. Format: functional.
Series [5] concerns Candida albicans. Description: Anticandidal activity against amphotericin-B resistant Candida albicans after 24 to 48 hrs by broth microdilution technique. The format is functional.
The subject of series [6] is Candida albicans. Description: Anticandidal activity against Candida albicans ATCC750 after 24 to 48 hrs by broth microdilution technique. Format: functional.
The subject of series [7] is Candida albicans. Description: Ratio of fluconazole MIC to compound MIC against amphotericin-B resistant Candida albicans after 24 to 48 hrs by broth microdilution technique. The format is functional.
The subject of series [8] is Candida albicans. As to the kind of experiment: Anticandidal activity against Candida albicans isolated from patient after 24 to 48 hrs by broth microdilution technique. The format is functional.
The subject of series [9] is Sporothrix schenckii. Description: Ratio of clotrimazole MIC to compound MIC against Sporothrix schenckii after 72 to 96 hrs by broth microdilution technique. Format: functional.
Series [10] has as its system L929. As to the kind of experiment: Cytotoxicity against mouse L929 cells assessed as morphological changes up to 3.12 ug/ml after 24 hrs by giemsa staining based phase contrast microscopy. Format: cell-based. The settings on record: l929, 24 h.
The test system of series [11] is Candida albicans. Description: Anticandidal activity against Candida albicans ATCC14053 after 24 to 48 hrs by broth microdilution technique. Format: functional.
Series [12] concerns Candida albicans. Description: Anticandidal activity against Candida albicans ATCC-MYA 2950 after 24 to 48 hrs by broth microdilution technique. Format: functional.
Series [13] relates to Candida albicans. As to the kind of experiment: Anticandidal activity against Candida albicans CDRI after 24 to 48 hrs by broth microdilution technique. The format is functional.
Series [14] relates to L929. Description: Cytotoxicity against mouse L929 cells assessed as decline in cell survival at 12.5 to 50 ug/ml after 24 hrs by spectrophotometric analysis. Particulars: l929, 24 h. The format is cell-based.
Series [15] relates to Sporothrix schenckii. As to the kind of experiment: Ratio of fluconazole MIC to compound MIC against Sporothrix schenckii after 72 to 96 hrs by broth microdilution technique. Format: functional.
In series [16] the test system is Trichophyton mentagrophytes. As to the kind of experiment: Antifungal activity against Trichophyton mentagrophytes after 72 to 96 hrs by broth microdilution technique. The format is functional.

Converted amounts (≈) assume the structure as drawn. Bounds are passed on as bounds.

On to `CCCSC(=S)NCc1ccncc1`, for which the MIC against Aspergillus fumigatus worked out at 50 µg/mL (≈ 221 µM); in the series with Cryptococcus neoformans, 12.5 µg/mL (≈ 55.2 µM); in the series with Sporothrix schenckii [1], 0.39 µg/mL (≈ 1.72 µM); against Candida albicans [2], 6.25 µg/mL (≈ 27.6 µM); against Candida albicans [3] it was 1.56 µg/mL (≈ 6.89 µM); with Candida albicans [4], 6.25 µg/mL (≈ 27.6 µM). The MIC against Candida parapsilosis is 12.5 µg/mL (≈ 55.2 µM); against Candida albicans [5], 3.12 µg/mL (≈ 13.8 µM); with Candida albicans [6], 12.5 µg/mL (≈ 55.2 µM); against Candida albicans [8], 12.5 µg/mL (≈ 55.2 µM); with Candida albicans [11], 6.25 µg/mL (≈ 27.6 µM); against Candida albicans [12], 12.5 µg/mL (≈ 55.2 µM). The results for the MIC (against Candida albicans [13]; in series [16]) were 6.25 µg/mL (≈ 27.6 µM) and 3.12 µg/mL (≈ 13.8 µM), respectively. In addition, the Ratio in the series on Candida albicans [7] is on record as 2; in the series with Sporothrix schenckii [9], 12; with Sporothrix schenckii [15] it was 12. The Activity entry in the series with L929 [10] is listed as “Non-toxic”; in the series on L929 [14], “Toxic”.
Regarding `C=CCSC(=S)NCc1ccncc1`, the minimum inhibitory concentration (MIC) against Aspergillus fumigatus came out at 25 µg/mL (≈ 111 µM); in the series with Cryptococcus neoformans, 3.12 µg/mL (≈ 13.9 µM); against Sporothrix schenckii [1], 0.39 µg/mL (≈ 1.74 µM); against Candida albicans [2], 1.56 µg/mL (≈ 6.95 µM); against Candida albicans [3], 0.78 µg/mL (≈ 3.48 µM); against Candida albicans [4] it was 1.56 µg/mL (≈ 6.95 µM). The MIC in the series on Candida parapsilosis was found to be 1.56 µg/mL (≈ 6.95 µM); in the series with Candida albicans [5], 6.25 µg/mL (≈ 27.9 µM); against Candida albicans [6], 3.12 µg/mL (≈ 13.9 µM); against Candida albicans [8], 1.56 µg/mL (≈ 6.95 µM); with Candida albicans [11] it was 0.78 µg/mL (≈ 3.48 µM); with Candida albicans [12] it was 1.56 µg/mL (≈ 6.95 µM). Further, the MIC in the series with Candida albicans [13] amounted to 1.56 µg/mL (≈ 6.95 µM); in [16] it was 3.12 µg/mL (≈ 13.9 µM). For the same compound, the results for the Ratio in the series with Candida albicans [7], with Sporothrix schenckii [9] and with Sporothrix schenckii [15] were 1, 12 and 12, respectively. In addition, the Activity result is listed as “Non-toxic” with L929 [10] and “Toxic” in the series with L929 [14].
`O=C1/C(=C/c2ccc(F)cc2)SC(=S)N1Cc1ccncc1`: the MIC is > 50 µg/mL in the series on Aspergillus fumigatus; 25 µg/mL (≈ 75.7 µM) against Cryptococcus neoformans; 0.39 µg/mL (≈ 1.18 µM) in the series on Sporothrix schenckii [1]; 12.5 µg/mL (≈ 37.8 µM) in the series on Candida albicans [2]; 25 µg/mL (≈ 75.7 µM) in the series on Candida parapsilosis; 3.12 µg/mL (≈ 9.44 µM) in series [16]. Also, the Ratio with Sporothrix schenckii [9] and with Sporothrix schenckii [15] was 12 throughout. Besides, the results for the Activity result with L929 [10] and with L929 [14] were “Non-toxic” and “Toxic”, respectively.
For the compound `O=C1/C(=C/c2ccncc2)SC(=S)N1Cc1ccncc1`, the MIC was found to be 25 µg/mL (≈ 79.8 µM) in the series on Aspergillus fumigatus; 1.56 µg/mL (≈ 4.98 µM) against Cryptococcus neoformans; 3.12 µg/mL (≈ 9.96 µM) against Sporothrix schenckii [1]; 1.56 µg/mL (≈ 4.98 µM) with Candida albicans [2]; 0.78 µg/mL (≈ 2.49 µM) against Candida albicans [3]; 1.56 µg/mL (≈ 4.98 µM) in the series on Candida albicans [4]. In addition, the MIC came out at 1.56 µg/mL (≈ 4.98 µM) in the series with Candida parapsilosis; 3.12 µg/mL (≈ 9.96 µM) in the series with Candida albicans [5]; 6.25 µg/mL (≈ 19.9 µM) with Candida albicans [6]; 3.12 µg/mL (≈ 9.96 µM) in the series with Candida albicans [8]; 6.25 µg/mL (≈ 19.9 µM) with Candida albicans [11]; 1.56 µg/mL (≈ 4.98 µM) in the series on Candida albicans [12]. Moreover, the MIC (against Candida albicans [13]; in series [16]) was 3.12 µg/mL (≈ 9.96 µM) throughout. Also, the Ratio in the series on Candida albicans [7] is 2. The values for the Activity result with L929 [10] and in the series on L929 [14] were “Non-toxic” and “Toxic”, respectively.

What is called MIC is the smallest concentration in the dilution series that meets the test's criterion for growth inhibition.
